Entries after “also recorded” stand apart in the source; their conditions may differ.
Molecular target: T1, human DNA polymerase γ (Homo sapiens, UniProt P54098)
T1 construct: purchased Chimerx
T1 sequence (P54098 1-1239): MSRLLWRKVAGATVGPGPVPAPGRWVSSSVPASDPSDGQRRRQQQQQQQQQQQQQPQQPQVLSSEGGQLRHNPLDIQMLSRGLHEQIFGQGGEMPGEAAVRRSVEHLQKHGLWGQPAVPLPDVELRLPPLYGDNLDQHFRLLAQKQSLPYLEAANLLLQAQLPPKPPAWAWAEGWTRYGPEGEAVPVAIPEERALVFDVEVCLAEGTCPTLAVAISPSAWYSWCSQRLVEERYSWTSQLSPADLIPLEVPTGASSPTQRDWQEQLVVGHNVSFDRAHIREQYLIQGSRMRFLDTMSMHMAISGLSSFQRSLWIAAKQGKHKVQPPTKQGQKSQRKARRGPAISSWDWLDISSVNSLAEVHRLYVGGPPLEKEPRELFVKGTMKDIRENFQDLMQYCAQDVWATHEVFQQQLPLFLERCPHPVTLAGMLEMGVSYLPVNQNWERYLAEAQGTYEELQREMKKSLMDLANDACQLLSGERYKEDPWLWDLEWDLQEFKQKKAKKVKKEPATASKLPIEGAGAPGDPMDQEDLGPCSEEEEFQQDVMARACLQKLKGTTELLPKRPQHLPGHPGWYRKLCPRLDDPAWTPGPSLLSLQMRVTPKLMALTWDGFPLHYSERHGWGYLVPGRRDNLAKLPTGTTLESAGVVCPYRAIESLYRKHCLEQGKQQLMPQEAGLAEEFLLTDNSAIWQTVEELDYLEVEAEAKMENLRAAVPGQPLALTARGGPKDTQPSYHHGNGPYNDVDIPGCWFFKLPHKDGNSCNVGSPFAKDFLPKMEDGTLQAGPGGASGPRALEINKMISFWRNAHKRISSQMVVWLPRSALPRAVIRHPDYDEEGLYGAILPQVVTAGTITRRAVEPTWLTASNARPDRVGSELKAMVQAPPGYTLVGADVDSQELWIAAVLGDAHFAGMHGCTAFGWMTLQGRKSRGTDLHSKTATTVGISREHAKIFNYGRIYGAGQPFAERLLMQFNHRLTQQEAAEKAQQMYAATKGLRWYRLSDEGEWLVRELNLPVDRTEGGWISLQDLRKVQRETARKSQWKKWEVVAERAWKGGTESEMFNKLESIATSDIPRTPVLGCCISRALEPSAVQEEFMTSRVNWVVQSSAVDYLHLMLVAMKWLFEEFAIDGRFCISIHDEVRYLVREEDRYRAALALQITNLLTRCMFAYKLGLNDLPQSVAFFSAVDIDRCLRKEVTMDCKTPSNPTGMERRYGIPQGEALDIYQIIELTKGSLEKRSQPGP
Experiment: Primer extension assay using human DNA polymerase γ
Type: biochemical
Conditions: 120 min, 2 U, 37 °C
From the text: Encouraged by the previously obtained results that γ-phosphate-modified-d4TDPs 3, γ-monoalkylated d4TTP derivatives as well as d4TDP were accepted as substrates by HIV-RT,[49],[50],[55],[59]−[61] δ-dialkylated d4T tetraphosphate analogues 4,5, δ-monoalkylated d4T tetraphosphate analogues 20 and 24 and d4T4P were investigated in primer extension assays in the presence of HIV-RT or the three different human DNA polymerases α, β and γ. D4TTP (for the compounds 4–9) and the natural thymidine triphosphate (TTP) were used as reference compounds.
Figure 6 Primer extension assay using HIV-RT (A), human polymerases α (B), β (C), and γ (D). (Figure 6A). Primer extension assay using HIV-RT (30 min, 6U). Lane 1: (+) dATP, dCTP, dGTP, and TTP with HIV-RT. Lane 2: (−) dATP, dCTP, dGTP, and TTP without HIV-RT. Lane 3: TTP. […] Lane 5: δ-(C4; C18)-d4T4P 4d. […] Lane 7: δ-(C18)-d4T4P 20. Lane 8: δ-C-(C18)-d4T4P 24. Lane 9: d4T4P. Lane 10: d4TTP. Lane 11: d4TDP. HIV-RT assay reaction conditions: 50 mM Tris–HCl (pH 8.6), 10 mM MgCl2, 40 mM KCl, 250 μM dNTPs, HIV-RT (6 U), 0.20 μM DNA hybrid, primer-template-hybrid 0.32 mM in a reaction volume of 10 μL, incubated at 37 °C for 0.5 h, 80 °C for 7 min. Primer extension assays: 50 mA, 45 w for 4 h. (Figure 6B). For human DNA polymerase α assay (60 min, 2 U): Lane 1: (+) dATP, dCTP, dGTP, and TTP with human polymerase α. Lane 2: (−) dATP, dCTP, dGTP, and TTP without human polymerase α. Lane 3: TTP. […] Lane 5: δ-(C4; C18)-d4T4P 4d. […] Lane 7: δ-(C18)-d4T4P 20. Lane 8: δ-C-(C18)-d4T4P 24. Lane 9: d4T4P. Lane 10: d4TTP. Human DNA polymerase α assay conditions: 60 mM Tris–HCl (pH 8), 5 mM Mg(OAc)2, 100 mM KCl, 1.0 mM dithiothreitol, 0.1 mM spermine, 0.01% (w/v) bovine serum albumin, 250 μM dNTPs, 2 U human polymerase α, 0.20 μM DNA hybrid, and primer-template-hybrid 0.32 mM in a reaction volume of 10 μL, incubated at 37 °C for 1 h, 80 °C for 7 min. Primer extension assays: 50 mA, 45 w for 3 h. (Figure 6C). For human DNA polymerase β assay (60 min, 2 U): Lane 1: (+) dATP, dCTP, dGTP, and TTP with human polymerase β. […]

| Compound | substrate for human DNA polymerase γ (primer extension) |
| --- | --- |
| CCCCCCCCCCCCCCCCCCOP(=O)(O)OP(=O)(O)OP(=O)(O)OP(=O)(O)OC[C@@H]1C=C[C@H](n2cc(C)c(=O)[nH]c2=O)O1 [compound 20, δ-(Alkyl-C18)-d4T4P] | nonsubstrates |
| CCCCCCCCCCCCCCCCCCP(=O)(O)OP(=O)(O)OP(=O)(O)OP(=O)(O)OC[C@@H]1C=C[C@H](n2cc(C)c(=O)[nH]c2=O)O1 [compound 24, δ-C-(Alkyl-C18)-d4T4P] | nonsubstrates |
| Cc1cn([C@H]2C=C[C@@H](COP(=O)(O)OP(=O)(O)OP(=O)(O)OP(=O)(O)O)O2)c(=O)[nH]c1=O [d4T4P, 2′,3′-didehydro-2′,3′-dideoxythymidine-5′-tetraphosphate] | nonsubstrates; also recorded: not a substrate |
